Source: PubChem BioAssay AID248 (DTP/NCI, 2004)
Values joined by “and” are separate entries in the source; they are usually repeats but may differ in a detail not shown here. Equal entries are not always repeated. Inconclusive results and toxic doses are left out. No stated cut-off is given here; in the data, active means T/C of 150% or more; inactive means T/C below 125%.

Tested on: L1210 leukemia ip in BDF1 mice, survival T/C
Test: NCI In Vivo Anticancer Drug Screen. Data for tumor model L1210 Leukemia (intraperitoneal) in B6D2F1 (BDF1) mice
Conditions: endpoint: mean survival time, higher = longer survival
How it was run: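 Ratio derived from survival: compound-dosed mice over vehicle-dosed mice, all bearing a transplantable tumor.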

[1] = dose: 100.0 mg/kg/injection, schedule: Q01DX009 (ip), vehicle: Klucel (hydroxypropylcellulose) (HPC)
[2] = dose: 100.0 mg/kg/injection, schedule: Q04DX003 (ip), vehicle: saline
[3] = dose: 200.0 mg/kg/injection, schedule: Q04DX003 (ip), vehicle: saline
[4] = dose: 400.0 mg/kg/injection, schedule: Q04DX003 (ip), vehicle: saline
[5] = dose: 100.0 mg/kg/injection, schedule: Q04DX002 (ip), vehicle: saline
[6] = dose: 200.0 mg/kg/injection, schedule: Q04DX002 (ip), vehicle: saline
[7] = dose: 400.0 mg/kg/injection, schedule: Q04DX002 (ip), vehicle: saline
[8] = dose: 100.0 mg/kg/injection, schedule: Q04DX003 (ip), vehicle: Klucel (hydroxypropylcellulose) (HPC)
[9] = dose: 200.0 mg/kg/injection, schedule: Q04DX003 (ip), vehicle: Klucel (hydroxypropylcellulose) (HPC)
[10] = dose: 400.0 mg/kg/injection, schedule: Q04DX003 (ip), vehicle: Klucel (hydroxypropylcellulose) (HPC)
[11] = dose: 12.5 mg/kg/injection, schedule: Q01DX009 (ip), vehicle: saline with Tween-80
[12] = dose: 25.0 mg/kg/injection, schedule: Q01DX009 (ip), vehicle: saline with Tween-80

Measured: T/C

O=C(Nc1ccccc1)OCC(Cl)(Cl)Cl
inactive: dose: 100.0 mg/kg/injection, schedule: Q01DX001 (ip), vehicle: saline sonified 105 % of control | [1] 100 % of control | [2] 91 % of control | dose: 200.0 mg/kg/injection, schedule: Q01DX001 (ip), vehicle: saline sonified 108 % of control | dose: 200.0 mg/kg/injection, schedule: Q01DX009 (ip), vehicle: Klucel (hydroxypropylcellulose) (HPC) 107 % of control | [3] 100 % of control | dose: 400.0 mg/kg/injection, schedule: Q01DX001 (ip), vehicle: saline sonified 103 % of control | dose: 400.0 mg/kg/injection, schedule: Q01DX009 (ip), vehicle: Klucel (hydroxypropylcellulose) (HPC) 100 % of control | [4] 96 % of control

Cc1ccc(C)c2c1c1ccccc1n2N=O
inactive: dose: 50.0 mg/kg/injection, schedule: Q01DX001 (ip), vehicle: saline 97 % of control | dose: 100.0 mg/kg/injection, schedule: Q01DX001 (ip), vehicle: saline 100 % of control | dose: 200.0 mg/kg/injection, schedule: Q01DX001 (ip), vehicle: saline 100 % of control | dose: 400.0 mg/kg/injection, schedule: Q01DX001 (ip), vehicle: saline 114 % of control

CCCCCCCCCC(=O)N1C(C)CCCC1C (stereo not drawn)
inactive: [5] 94 % of control | [6] 105 % of control | [7] 105 % of control

O=C(Cc1ccccc1)c1ccccn1
inactive: dose: 100.0 mg/kg/injection, schedule: Q01DX001 (ip), vehicle: other 95 % of control | dose: 200.0 mg/kg/injection, schedule: Q01DX001 (ip), vehicle: other 98 % of control | dose: 400.0 mg/kg/injection, schedule: Q01DX001 (ip), vehicle: other 101 % of control

CC(C)(CS(C)(=O)=O)NC(=O)NCCCl
inactive: [5] 103 % of control | [6] 92 % of control | [7] 103 % of control

CCCC(=O)/C=C/c1ccc(C)cc1
inactive: [2] 96 % of control | [3] 112 % of control | [4] 96 % of control

CC(=O)C1=C(O)C(c2ccccc2)c2ccccc21 (stereo not drawn)
inactive: dose: 100.0 mg/kg/injection, schedule: Q01DX001 (ip), vehicle: Klucel (hydroxypropylcellulose) (HPC) 108 % of control | [8] 100 % of control | dose: 200.0 mg/kg/injection, schedule: Q01DX001 (ip), vehicle: Klucel (hydroxypropylcellulose) (HPC) 103 % of control | [9] 103 % of control | dose: 400.0 mg/kg/injection, schedule: Q01DX001 (ip), vehicle: Klucel (hydroxypropylcellulose) (HPC) 100 % of control | [10] 95 % of control

O=[N+]([O-])c1ccc(/C=C/C=C/c2ccccc2)cc1Cl
inactive: [8] 102 % of control | [9] 102 % of control | [10] 101 % of control

CCCCOC(CN)C(Cl)(Cl)Cl (stereo not drawn)
inactive: dose: 6.0 mg/kg/injection, schedule: Q04DX002 (ip), vehicle: saline 96 % of control and 97 % of control | dose: 12.0 mg/kg/injection, schedule: Q04DX002 (ip), vehicle: saline 104 % of control and 87 % of control | dose: 12.5 mg/kg/injection, schedule: Q01DX009 (ip), vehicle: saline 97 % of control and 98 % of control | dose: 200.0 mg/kg/injection, schedule: Q01DX009 (ip), vehicle: saline 96 % of control and 101 % of control | [6] 97 % of control

O=S(=O)(F)c1ccc(C[P+](c2ccccc2)(c2ccccc2)c2ccccc2)cc1
inactive: dose: 75.0 mg/kg/injection, schedule: Q01DX001 (ip), vehicle: saline 106 % of control | dose: 150.0 mg/kg/injection, schedule: Q01DX001 (ip), vehicle: saline 105 % of control | dose: 300.0 mg/kg/injection, schedule: Q01DX001 (ip), vehicle: saline 98 % of control

CCOC(=O)CCCl
inactive: dose: 75.0 mg/kg/injection, schedule: Q01DX009 (ip), vehicle: Klucel (hydroxypropylcellulose) (HPC) 94 % of control | dose: 75.0 mg/kg/injection, schedule: Q04DX003 (ip), vehicle: saline 117 % of control | dose: 150.0 mg/kg/injection, schedule: Q01DX009 (ip), vehicle: Klucel (hydroxypropylcellulose) (HPC) 96 % of control | dose: 300.0 mg/kg/injection, schedule: Q01DX009 (ip), vehicle: Klucel (hydroxypropylcellulose) (HPC) 97 % of control | dose: 300.0 mg/kg/injection, schedule: Q04DX003 (ip), vehicle: saline 97 % of control

C=C(C)CCC1C(=O)N(c2ccccc2)N(c2ccccc2)C1=O
inactive: dose: 25.0 mg/kg/injection, schedule: Q01DX009 (ip), vehicle: Klucel (hydroxypropylcellulose) (HPC) 103 % of control | dose: 50.0 mg/kg/injection, schedule: Q01DX009 (ip), vehicle: Klucel (hydroxypropylcellulose) (HPC) 95 % of control | [1] 100 % of control

O=C(NC(=S)Nc1ccc(F)cc1)c1cccc([N+](=O)[O-])c1
inactive: [11] 97 % of control and 98 % of control | [12] 94 % of control and 97 % of control | dose: 50.0 mg/kg/injection, schedule: Q04DX003 (ip), vehicle: saline with Tween-80 100 % of control | dose: 100.0 mg/kg/injection, schedule: Q01DX001 (ip), vehicle: saline with Tween-80 97 % of control | dose: 100.0 mg/kg/injection, schedule: Q04DX002 (ip), vehicle: saline with Tween-80 101 % of control | dose: 100.0 mg/kg/injection, schedule: Q04DX003 (ip), vehicle: saline with Tween-80 97 % of control | dose: 200.0 mg/kg/injection, schedule: Q01DX001 (ip), vehicle: saline with Tween-80 95 % of control | dose: 200.0 mg/kg/injection, schedule: Q04DX002 (ip), vehicle: saline with Tween-80 93 % of control and 97 % of control

CCN=C(c1ccc(NC(=O)c2ccc(C(=O)Nc3ccc(C(=NCC)N(CC)C(=O)CC(C)C)cc3)cc2)cc1)N(CC)C(=O)CC(C)C
inactive: dose: 3.12 mg/kg/injection, schedule: Q01DX015 (ip), vehicle: methylcellulose (MC) 96 % of control | dose: 6.25 mg/kg/injection, schedule: Q01DX015 (ip), vehicle: methylcellulose (MC) 96 % of control | dose: 12.5 mg/kg/injection, schedule: Q01DX015 (ip), vehicle: methylcellulose (MC) 92 % of control | dose: 25.0 mg/kg/injection, schedule: Q01DX015 (ip), vehicle: methylcellulose (MC) 93 % of control | dose: 50.0 mg/kg/injection, schedule: Q01DX015 (ip), vehicle: methylcellulose (MC) 96 % of control | dose: 100.0 mg/kg/injection, schedule: Q01DX015 (ip), vehicle: methylcellulose (MC) 88 % of control | dose: 200.0 mg/kg/injection, schedule: Q01DX015 (ip), vehicle: methylcellulose (MC) 94 % of control

COCCNC1=C(F)C(=O)C(NCCOC)=C(F)C1=O
inactive: dose: 3.12 mg/kg/injection, schedule: Q04DX003 (ip), vehicle: Klucel (hydroxypropylcellulose) (HPC) 90 % of control | dose: 6.25 mg/kg/injection, schedule: Q04DX003 (ip), vehicle: Klucel (hydroxypropylcellulose) (HPC) 111 % of control | dose: 12.5 mg/kg/injection, schedule: Q04DX003 (ip), vehicle: Klucel (hydroxypropylcellulose) (HPC) 98 % of control | dose: 25.0 mg/kg/injection, schedule: Q04DX003 (ip), vehicle: Klucel (hydroxypropylcellulose) (HPC) 95 % of control | dose: 50.0 mg/kg/injection, schedule: Q04DX003 (ip), vehicle: Klucel (hydroxypropylcellulose) (HPC) 95 % of control | [8] 97 % of control | dose: 150.0 mg/kg/injection, schedule: Q04DX003 (ip), vehicle: Klucel (hydroxypropylcellulose) (HPC) 94 % of control | dose: 225.0 mg/kg/injection, schedule: Q04DX003 (ip), vehicle: Klucel (hydroxypropylcellulose) (HPC) 94 % of control | dose: 335.0 mg/kg/injection, schedule: Q04DX003 (ip), vehicle: Klucel (hydroxypropylcellulose) (HPC) 95 % of control

COC(=O)CCC(=O)c1ccc(Cl)cc1
inactive: dose: 100.0 mg/kg/injection, schedule: Q01DX009 (ip), vehicle: gum acacia 98 % of control | dose: 100.0 mg/kg/injection, schedule: Q04DX003 (ip), vehicle: gum acacia 100 % of control | dose: 200.0 mg/kg/injection, schedule: Q01DX009 (ip), vehicle: gum acacia 97 % of control | dose: 200.0 mg/kg/injection, schedule: Q04DX003 (ip), vehicle: gum acacia 96 % of control | dose: 400.0 mg/kg/injection, schedule: Q01DX009 (ip), vehicle: gum acacia 101 % of control | dose: 400.0 mg/kg/injection, schedule: Q04DX003 (ip), vehicle: gum acacia 102 % of control

Cc1c2ccccc2cc2c1ccc1cccc(F)c12
inactive: [11] 107 % of control | [12] 104 % of control | dose: 50.0 mg/kg/injection, schedule: Q01DX009 (ip), vehicle: saline with Tween-80 96 % of control
